Patent US8507690B2, “Thiazole derivative and use thereof as VAP-1 inhibitor” (R-Tech Ueno, Ltd., priority 2008, dated 2013)
Where a name gives a salt, the structure may show the parent alone.

What was measured:
[1] = molecular target: T1, human VAP-1 enzyme (SSAO) (Homo sapiens, UniProt Q16853); assay: Enzyme activity inhibitory effect on human VAP-1 enzyme (SSAO), radiochemical-enzyme assay with 14C-benzylamine; assay type: biochemical; settings: human VAP-1 (SSAO) cell extract, 14C-benzylamine 1×10^−5 mol/l, 37° C. 2 hours
T1 construct: made in house; cell extract used
T1 sequence (Q16853 1-763): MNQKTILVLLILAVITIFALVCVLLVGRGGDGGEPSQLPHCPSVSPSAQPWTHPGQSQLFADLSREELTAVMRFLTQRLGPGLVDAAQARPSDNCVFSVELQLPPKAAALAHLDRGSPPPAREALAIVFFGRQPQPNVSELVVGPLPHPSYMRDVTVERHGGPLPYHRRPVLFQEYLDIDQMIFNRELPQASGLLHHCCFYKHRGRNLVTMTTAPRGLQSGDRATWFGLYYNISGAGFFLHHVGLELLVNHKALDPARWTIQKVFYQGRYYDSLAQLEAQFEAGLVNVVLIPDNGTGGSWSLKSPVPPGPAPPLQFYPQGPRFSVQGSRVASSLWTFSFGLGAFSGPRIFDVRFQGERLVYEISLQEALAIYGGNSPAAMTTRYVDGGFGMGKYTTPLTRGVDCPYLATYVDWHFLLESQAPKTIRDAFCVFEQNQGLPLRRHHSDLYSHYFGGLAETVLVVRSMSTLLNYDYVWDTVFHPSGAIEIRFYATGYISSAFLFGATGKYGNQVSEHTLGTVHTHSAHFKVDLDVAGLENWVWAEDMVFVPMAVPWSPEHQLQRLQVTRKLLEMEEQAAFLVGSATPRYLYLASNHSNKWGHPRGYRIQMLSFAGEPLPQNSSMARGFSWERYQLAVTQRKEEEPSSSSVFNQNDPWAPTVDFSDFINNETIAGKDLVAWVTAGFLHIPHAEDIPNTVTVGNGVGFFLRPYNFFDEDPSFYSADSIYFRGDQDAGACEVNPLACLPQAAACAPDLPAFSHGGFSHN
Description: (§1) The compounds of the present invention obtained in Production Examples were examined for the enzyme activity inhibitory effect on human and rat VAP-1 enzyme (SSAO) by the following method.
(§2) The VAP-1 enzyme (SSAO) activity in both human and rat was measured by a radiochemical-enzyme assay using ^14C-benzylamine as an artificial substrate. Human or rat VAP-1 was cloned from the cDNA library and expressed in a cell. The cell extract was preincubated with a test compound solution (final concentration 1×10^−7-1×10^−11 mol/l) at room temperature for 20 minutes. Then, ^14C-benzylamine (final concentration 1×10^−5 mol/l) was added, and the mixture was incubated at a final volume of 200 μl at 37° C. for 2 hours. The enzyme reaction was stopped by addition of 2 mol/l (200 μl) citric acid. The oxidation product was extracted with 1 ml toluene/ethyl acetate (1:1), and the radioactivity thereof was measured by a liquid scintillation counter.

[2] = molecular target: T2, rat VAP-1 enzyme (SSAO) (Rattus norvegicus, UniProt O08590); assay: Enzyme activity inhibitory effect on rat VAP-1 enzyme (SSAO), radiochemical-enzyme assay with 14C-benzylamine; assay type: biochemical; settings: rat VAP-1 (SSAO) cell extract, 14C-benzylamine 1×10^−5 mol/l, 37° C. 2 hours
T2 construct: made in house; cell extract used
T2 sequence (O08590 1-763): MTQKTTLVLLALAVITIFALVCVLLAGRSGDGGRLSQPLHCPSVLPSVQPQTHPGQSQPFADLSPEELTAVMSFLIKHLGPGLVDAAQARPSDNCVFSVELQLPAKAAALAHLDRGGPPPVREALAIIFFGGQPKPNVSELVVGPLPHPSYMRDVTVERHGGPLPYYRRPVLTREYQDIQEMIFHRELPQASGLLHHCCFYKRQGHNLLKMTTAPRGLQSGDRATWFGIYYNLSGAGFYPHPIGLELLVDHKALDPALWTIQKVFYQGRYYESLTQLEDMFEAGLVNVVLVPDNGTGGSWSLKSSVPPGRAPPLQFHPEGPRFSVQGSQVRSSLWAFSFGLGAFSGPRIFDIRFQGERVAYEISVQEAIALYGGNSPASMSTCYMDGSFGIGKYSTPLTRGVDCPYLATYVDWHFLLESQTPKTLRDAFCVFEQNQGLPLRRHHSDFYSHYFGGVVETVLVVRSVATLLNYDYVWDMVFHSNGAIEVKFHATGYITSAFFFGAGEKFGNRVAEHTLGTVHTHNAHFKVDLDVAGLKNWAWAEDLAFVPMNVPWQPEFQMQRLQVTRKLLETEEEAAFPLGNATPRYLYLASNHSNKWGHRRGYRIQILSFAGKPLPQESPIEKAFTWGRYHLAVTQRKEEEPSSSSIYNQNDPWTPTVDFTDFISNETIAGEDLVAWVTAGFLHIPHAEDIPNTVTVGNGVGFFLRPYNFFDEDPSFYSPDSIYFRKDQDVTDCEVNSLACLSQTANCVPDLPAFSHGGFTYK
Description: as §1, §2

| SMILES | melting point | IC50 [1] | IC50 [2] |
| --- | --- | --- | --- |
| CC(=O)Nc1nc(C(=O)Nc2ccc(CNC(=O)NN)cc2)cs1.Cl [Production Example 24] | 231 to 234 °C | – | – |
| CC(=O)Nc1nc(CCc2ccc(CCNC(=O)NN)s2)cs1.Cl [Production Example 30, N-[2-(5-{2-[2-(acetylamino)-1,3-thiazol-4-yl]ethyl}thiophen-2-yl)ethyl]hydrazinecarboxamide hydrochloride] | 178 to 181 °C | 18.8 nM | 3.8 nM |
| CC(=O)Nc1nc(CCc2ccc(CSC(=O)NN)s2)cs1 [Production Example 36, S-[(5-{2-[2-(acetylamino)-1,3-thiazol-4-yl]ethyl}thiophen-2-yl)methyl]hydrazinecarbothioate hydrochloride] | – | 2.3 nM | 0.6 nM |
| CC(=O)Nc1nc(CCc2ccc(CNC(=O)NN)c(F)c2F)cs1 [Production Example 22, N-(4-{2-[2-(acetylamino)-1,3-thiazol-4-yl]ethyl}-2,3-difluorobenzyl)hydrazinecarboxamide hydrochloride] | – | 5.5 nM | 2.2 nM |
| CC(=O)Nc1nc(CCc2cc(CCCNC(=O)NN)cs2)cs1 (as salt: hydrochloride) [Production Example 32, N-[3-(5-{2-[2-(acetylamino)-1,3-thiazol-4-yl]ethyl}thiophen-3-yl)propyl]hydrazinecarboxamide hydrochloride] | 111 to 115 °C | – | – |
| CC(=O)Nc1nc(C(=O)Nc2ccc(CCOC(=O)NN)cc2)cs1.Cl [Production Example 9, 2-[4-({[2-(acetylamino)-1,3-thiazol-4-yl]carbonyl}amino)phenyl]ethyl hydrazinecarboxylate hydrochloride] | 225 to 233 °C | 17.1 nM | 1 nM |
| CC(=O)Nc1nc(CCc2csc(CCCNC(=O)NN)c2)cs1 (as salt: hydrochloride) | 153 to 156 °C | – | – |
| CC(=O)Nc1nc(CCc2cccc(CNC(=O)NN)c2)cs1.Cl [Production Example 27, N-(3-{2-[2-(acetylamino)-1,3-thiazol-4-yl]ethyl}benzyl)hydrazinecarboxamide hydrochloride] | 123 to 127 °C | 2.1 nM | 0.6 nM |
| CC(=O)Nc1nc(CCc2ccc(CNC(=O)NN)cc2F)cs1 (as salt: hydrochloride) | 165 to 169 °C | – | – |
| CC(=O)Nc1nc(CNc2ccc(CNC(=O)NN)cc2)cs1 [Production Example 23, N-[4-({[2-(acetylamino)-1,3-thiazol-4-yl]methyl}amino)benzyl]hydrazinecarboxamide dihydrochloride] | – | 16.8 nM | 8.4 nM |
| CC(=O)Nc1nc(C(=O)Oc2ccc(CCOC(=O)NN)cc2)cs1.Cl [Production Example 8, 4-{2-[(hydrazinocarbonyl)oxy]ethyl}phenyl 2-(acetylamino)-1,3-thiazole-4-carboxylate hydrochloride] | 179 to 184 °C | 6.4 nM | 1.7 nM |
| CC(=O)Nc1nc(CCc2cc(C)c(CCCNC(=O)NN)s2)cs1.Cl [Production Example 33, N-[3-(5-{2-[2-(acetylamino)-1,3-thiazol-4-yl]ethyl}-3-methylthiophen-2-yl)propyl]hydrazinecarboxamide hydrochloride] | 152 to 157 °C | 108 nM | 2.1 nM |
| CC(=O)Nc1nc(CCc2ccc(CCOC(=O)NN)s2)cs1 [Production Example 14, 2-(5-{2-[2-(acetylamino)-1,3-thiazol-4-yl]ethyl}thiophen-2-yl)ethyl hydrazinecarboxylate hydrochloride] | – | 5.1 nM | 5.3 nM |
| CC(=O)Nc1nc(CCc2ccc(COC(=O)NN)c(F)c2F)cs1 [Production Example 6, 4-{2-[2-(acetylamino)-1,3-thiazol-4-yl]ethyl}-2,3-difluorobenzyl hydrazinecarboxylate hydrochloride] | – | 1.3 nM | 0.6 nM |
| CC(=O)Nc1nc(C(=O)Nc2ccc(CNC(=O)NN)cc2)cs1.Cl [Production Example 24, 2-(acetylamino)-N-(4-{[hydrazinocarbonyl)amino]methyl}phenyl)-1,3-thiazole-4-carboxamide hydrochloride] | – | 7.3 nM | 1 nM |
| CC(=O)Nc1nc(CCc2ccc(CSC(=O)NN)s2)cs1 (as salt: hydrochloride) [Production Example 36, S-[(5-{2-[2-(acetylamino)-1,3-thiazol-4-yl]ethyl}thiophen-2-yl)methyl]hydrazinecarbothioate hydrochloride] | 147 to 153 °C | – | – |

Now from value to compound:

| melting point | IC50 [1] | IC50 [2] | SMILES |
| --- | --- | --- | --- |
| 162 to 165 °C | 0.8 nM | 0.4 nM | CC(=O)Nc1nc(CCc2ccc(COC(=O)NN)c(F)c2)cs1.Cl [Production Example 4, 4-{2-[2-(acetylamino)-1,3-thiazol-4-yl]ethyl}-2-fluorobenzyl hydrazinecarboxylate hydrochloride] |
| 149 to 158 °C | 23.2 nM | 4.6 nM | CC(=O)Nc1nc(CCc2ccc(CSC(=O)NN)cc2)cs1.Cl [Production Example 34, S-(4-{2-[2-(acetylamino)-1,3-thiazol-4-yl]ethyl}benzyl) hydrazinecarbothioate hydrochloride] |
| 204 to 208 °C | 1.2 nM | 1.1 nM | CC(=O)Nc1nc(CCc2ccc(COC(=O)NN)cc2F)cs1.Cl [Production Example 5, 4-{2-[2-(acetylamino)-1,3-thiazol-4-yl]ethyl}-3-fluorobenzyl hydrazinecarboxylate hydrochloride] |
| 177 to 180 °C | 57 nM | 7.1 nM | CC(=O)Nc1nc(COc2ccc(CCOC(=O)NN)cc2)cs1 [Production Example 7, 2-(4-{[2-(acetylamino)-1,3-thiazol-4-yl]methoxy}phenyl)ethyl hydrazinecarboxylate] |
| 162 to 164 °C | 0.9 nM | 0.7 nM | CC(=O)Nc1nc(CCc2ccc(COC(=O)NN)cc2)cs1.Cl [Production Example 2, 4-{2-[2-(acetylamino)-1,3-thiazol-4-yl]ethyl}benzyl hydrazinecarboxylate hydrochloride] |
| – | 48.5 nM | 1.5 nM | CC(=O)Nc1nc(COc2ccc(CCNC(=O)NN)cc2)cs1 [Production Example 25, N-[2-(4-{[2-(acetylamino)-1,3-thiazol-4-yl]methoxy}phenyl)ethyl]hydrazinecarboxamide trifluoroacetate] |
| – | 3.4 nM | 0.7 nM | CC(=O)Nc1nc(CCc2ccc(COC(=O)NN)s2)cs1 [Production Example 13, {5-[2-(2-acetylamino-1,3-thiazol-4-yl)ethyl]thiophen-2-yl}methyl hydrazinecarboxylate hydrochloride] |
| 158 to 162 °C | – | – | CC(=O)Nc1nc(CCc2cccc(OC(=O)NN)c2)cs1 (as salt: hydrochloride) |
